Measured values reported in paper PMC10949195, “Exponential Combination of a and e/g Intracellular Peptide Libraries Identifies a Selective ATF3 Inhibitor” (ACS Chemical Biology, 2024).

Key:
ATF3 [1] = target: T1, ATF3 (Homo sapiens, UniProt P18847); assay: Isothermal titration calorimetry (ITC); format: binding; conditions: 20 °C, pH 7.0
T1 construct: We focus on the selective targeting of the ATF3 leucine zipper dimerization domain using intracellular peptide library screening; made in house; host or cells: chemical solid-phase peptide synthesis (no expression host)
T1 sequence (P18847 110-143): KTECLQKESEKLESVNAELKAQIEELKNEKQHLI
Protocol: To provide additional insight into the origin of the binding affinity (KD) between ATF3 and ATF3W_aeg, isothermal titration calorimetry (ITC) experiments were performed. […] The free energy of binding was predominantly driven by a favorable enthalpic term (ΔH = −14.6 kcal/mol) and opposed by an unfavorable entropic component (TΔS= −5.33 kcal/mol).
Figure 9 Isothermal titration calorimetry analysis of the ATF3-ATF3W_aeg interaction. In the bottom plot, the solid line represents the fit to the data based on the binding of a ligand to a macromolecule using the MicroCal (GE Healthcare) Origin software.[16] See Materials and Methods for further details.
ITC measurements were made using a Microcal PEAQ-ITC instrument with data collected and processed using the Origin 7.0 software package.[14],[23] All measurements were carried out at least twice. Briefly, all peptides were studied at 20 °C in 10 mM potassium phosphate and 100 mM potassium fluoride at pH 7.0. 40 μL of ATF3W_aeg was loaded into the syringe at 60 μM peptide concentration. 350 μL of ATF3 was loaded into the cell at 6 μM. The experiment was undertaken by injecting 2 μL of ATF3W_aeg 19 times into the calorimetric cell. Following ITC measurements, the data were fit to a one-site model.

[2] = Size-exclusion chromatography of peptide alone; format: physicochemical; conditions: Superdex Peptide 10/300 GL, RT; 20 μM total peptide
Protocol: During SEC experiments, monomeric ATF3 (Figure 8, blue line) and ATF3W_aeg (Figure 8, green line) eluted at approximately 20 min. These contrast with the dimeric profile observed for ATF3-ATF3W_aeg (Figure 8, black line), which occurred at approximately 19 min. For all samples, elution profiles were consistent with either a validated monomer or dimer elution pattern.[15]
Figure 8 SEC profiles indicate that ATF3W_aeg binds ATF3. Shown are size exclusion chromatography profiles for interacting peptides. The peak at approx 19 min for the ATF3-ATF3W_aeg mixture (black trace) represents a dimeric sample while ATF3 (blue trace) and ATF3W_aeg (green trace) generate a peak at approx 20 min, indicating the presence of a monomer. These experiments, undertaken at a total peptide concentration of 20 μM, provide additional evidence for selectivity of the ATF3-ATF3W_aeg interaction. Arrows show controls from previous peptides with elution times for a 32 mer Fos monomeric peptide (20 min) and a 37 mer cJun–FosW heterodimer (18.5 min).[15]
Size-exclusion experiments were performed at RT using a Superdex Peptide 10/300 GL column (GE Healthcare Life Sciences) as described previously.[23]

ATF3 [3] = target: T1, ATF3; assay: CD thermal denaturation of peptide mixed 1:1 with ATF3; format: binding; conditions: peptide incubated with ATF3; CD signal at 222 nm, 1 °C increments; 150 μM total peptide; 10 mM potassium phosphate, 100 mM potassium fluoride, pH 7.0; two-state denaturation model
Description: Following the observed significant increase in global secondary structure content for the ATF3-ATF3W_aeg complex relative to component peptides (Figure 6), we next analyzed the stability of the complex by undertaking thermal denaturation experiments (Figure 7). […] Moreover, consistent with spectral data, the clear increase from the average profile of the component peptides relative to that of the measured is most pronounced in the combined construct (Figure 7, red hash vs black). This provides robust additional evidence for a preferential interaction between ATF3 and ATF3W_aeg that is improved over either the core a or electrostatic e/g constructs.
Shown are thermal stabilities of peptide pairs measured via temperature dependence of the CD signal at 222 nm. The thermal denaturation profiles for (a) ATF3-ATF3W_a, (b) ATF3-ATF3W_eg, and (c) ATF3-ATF3W_aeg show a substantial increase in the transition midpoint (Tm = 59 °C) relative to component peptides (black vs red hash). Experiments were performed in 10 mM potassium phosphate and 100 mM potassium fluoride (pH 7.0). All spectra were recorded at 1 °C increments at a total peptide concentration of 150 μM and fitted to a two-state denaturation model.
Thermal denaturation experiments were performed at 150 μM total protein concentration in 10 mM potassium phosphate and 100 mM potassium fluoride, pH 7, using an Applied Photophysics Chirascan CD instrument (Leatherhead, UK) as previously described.[23]

Ac-ELAALEQKAYALKQENAALEKEVAALEQKIAALK-NH2 (N-terminus and C-terminus assumed) [ATF3W_aeg]
N (sites), stoichiometry of binding to ATF3 (ATF3 [1]): 0.72
TΔS of binding to ATF3 (ATF3 [1]): -5.33 kcal/mol
ΔG of binding to ATF3 (ATF3 [1]): -9.31 kcal/mol
ΔH of binding to ATF3 (ATF3 [1]): -14.6 kcal/mol
SEC elution time, peptide alone [2]: approximately 20 min
oligomeric state in solution by SEC, peptide alone [2]: exclusively as a monomer
transition midpoint (Tm) of heterodimer with ATF3 (ATF3 [3]): 60 °C
